{"source": "patent US5734015A", "about": "“Family of linear antimicrobial peptides from hagfish intestine” (Magainin Pharmaceuticals Inc., priority 1996, dated 1998)", "experiment_in_all_cases": "Antibiotic activity, MIC by standard methodology", "format_in_all_cases": "cell-based", "key": {"[1]": {"system": "C. albicans", "excerpt": "(§1) Chemical synthesis of the sequence (SEQ ID NO. 4) corresponding to Peptides 1 and 2 (SEQ ID NOS: 1 and 2 respectively) containing native (unmodified) tryptophan was achieved by SPPS, using Fmoc chemistry."}, "[2]": {"system": "E. coli", "excerpt": "as §1"}, "[3]": {"system": "P. aeruginosa", "excerpt": "as §1"}, "[4]": {"system": "S. aureus", "excerpt": "as §1"}}, "note": "No end group written: not given here."}
{"sequence": "GFFKKAWRKVKHAGRRVLDTAKGVGRHYVNNWLNRYR [SEQ ID NO. 4]", "values": [{"measurement": "minimum inhibitory concentration (MIC)", "setting": "[1]", "value": "> 256", "unit": "µg/mL"}, {"measurement": "minimum inhibitory concentration (MIC)", "setting": "[2]", "value": 8, "unit": "µg/mL"}, {"measurement": "minimum inhibitory concentration (MIC)", "setting": "[3]", "value": 8, "unit": "µg/mL"}, {"measurement": "minimum inhibitory concentration (MIC)", "setting": "[4]", "value": 8, "unit": "µg/mL"}]}
